{"source": "paper PMC11984586", "about": "“A novel spider toxin as a selective antagonist of the Kv1 subfamily of voltage-gated potassium channels through gating modulation” (The Journal of Biological Chemistry, 2025)", "key": {"Kv1.1/Y256A": {"tested_on": "Kv1.1/Y256A", "assay": "Whole-cell patch clamp, Tyr-to-Ala mutant homologous to Kv1.3 Y339", "type": "cell-based, human", "details": "10 μM MrVIII, +30 mV, 500 ms, holding −80 mV, mean ± SD, n = 4–6", "text": "(§1) Building on the identification of key amino acid residues in Kv1.3 channel that interact with MrVIII through alanine-scanning mutagenesis, we extended our analysis to explore these residues across other Kv1 subfamily channels. […] However, MrVIII retained substantial inhibitory potency on Kv1.2/Y266A mutant, albeit without fully blocking the channel current. […] The profound reduction in MrVIII's effect across homologous mutants supports the idea that it binds to a conserved region.\n(§2) The cDNA of hKv1.1, hKv1.2, hKv1.3, rKv1.4, hKv1.5, mKv1.6, and hKv1.7 were subcloned into mammalian expression vectors pcDNA3.1 or pCMV-blank vectors, as well as other plasmids described previously ([35]). Channel mutants were generated by site-directed mutations. Briefly, the parental channel plasmid was amplified using a pair of oppositely directed primers harboring the designed mutation site, with KOD Fx (TOYOBO Co, Ltd). The resulting PCR mix was treated with FastDigest DpnI (Thermo Fisher Scientific) to remove the methylated template. Ten microliters of the digested product was then used to transform 100 μl E. coli DH5α competent cells. […]\n(§3) CHO-K1 cells were selected for expressing Kv channels due to their lack of endogenous Kv channels, while HEK293 or ND7/23 cells were used for Nav and Cav channel expression. […] After 4 to 6 h transfection, cells were seeded onto poly-lysine–coated coverslips, and 24 to 36 h later, transfected cells were ready for patch-clamp analysis. […]\n(§4) For Kv current recordings, the bath solution contained (in mM) the following: 140 NaCl, 5 KCl, 1 MgCl2, 2 CaCl2, 10 glucose, and 10 Hepes (pH 7.3, adjusted with NaOH), and the pipette solution contained (in mM) the following: 140 KCl, 2.5 MgCl2, 11 EGTA, and 10 Hepes (pH 7.3, adjusted with KOH). […] Whole cell conductance (G) at each depolarizing voltage (V) was determined using the equation: G = I/(V−Vrev), where I is the current amplitude, and Vrev is the reversal potential. […] The steady-state fast inactivation of Kv1.3 was measured using a two-pulses protocol. […]"}, "Kv1.7/Y253A": {"tested_on": "Kv1.7/Y253A", "assay": "Whole-cell patch clamp, Tyr-to-Ala mutant homologous to Kv1.3 Y339", "type": "cell-based, human", "details": "10 μM MrVIII, +30 mV, 500 ms, holding −80 mV, mean ± SD, n = 4–6", "text": "as §1, §2, §3, §4"}, "Kv1.5/Y368A": {"tested_on": "Kv1.5/Y368A", "assay": "Whole-cell patch clamp, Tyr-to-Ala mutant homologous to Kv1.3 Y339", "type": "cell-based, human", "details": "10 μM MrVIII, +30 mV, 500 ms, holding −80 mV, mean ± SD, n = 4–6", "text": "as §1, §2, §3, §4"}, "Kv1.3/L347A": {"target": "T1, Kv1.3/L347A (Homo sapiens, UniProt P22001, L347A)", "T1 construct": "expressed in transfected cells; host or cells: CHO-K1", "T1 sequence (P22001 whole entry L347A, the tested form may be a part)": "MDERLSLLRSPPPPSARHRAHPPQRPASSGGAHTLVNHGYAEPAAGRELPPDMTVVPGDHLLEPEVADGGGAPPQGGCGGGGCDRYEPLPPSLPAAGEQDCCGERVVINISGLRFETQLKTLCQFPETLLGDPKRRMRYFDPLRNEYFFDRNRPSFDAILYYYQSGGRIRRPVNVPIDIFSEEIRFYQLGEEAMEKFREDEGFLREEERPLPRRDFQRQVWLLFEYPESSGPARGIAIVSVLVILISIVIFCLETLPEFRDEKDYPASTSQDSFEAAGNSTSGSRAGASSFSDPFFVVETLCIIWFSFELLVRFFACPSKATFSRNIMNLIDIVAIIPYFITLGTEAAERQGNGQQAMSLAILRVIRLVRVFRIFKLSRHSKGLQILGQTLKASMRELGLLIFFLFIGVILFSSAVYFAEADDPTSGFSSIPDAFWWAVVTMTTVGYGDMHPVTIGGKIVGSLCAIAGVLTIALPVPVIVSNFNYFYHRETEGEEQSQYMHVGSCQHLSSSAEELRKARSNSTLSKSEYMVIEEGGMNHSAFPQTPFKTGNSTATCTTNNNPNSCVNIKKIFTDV", "assay": "Whole-cell patch clamp, Kv1.3 alanine mutant", "type": "cell-based", "method": "(§5) MrVIII inhibits Kv1 channels by stabilizing the voltage sensor in its resting state. […] To investigate this hypothesis, we constructed a series of alanine mutants in the S3-S4 region of the Kv1.3 channel, covering residues I336 to L363, to identify critical interactions between the peptide and the channel (Fig. 6A). […] For the remaining mutants that retained functional current expression, we evaluated the inhibitory activity of 100 nM MrVIII. […] The lack of conserved multiple interaction sites may explain the absence of activity on other Kv subfamily channels (Fig. S3). In summary, this study identified key amino acid residues in the S3-S4 region of the Kv1.3 channel that interact with MrVIII, providing a foundation for further exploration into the peptide's mechanism of action.\n(§6) The cDNA of hKv1.1, hKv1.2, hKv1.3, rKv1.4, hKv1.5, mKv1.6, and hKv1.7 were subcloned into mammalian expression vectors pcDNA3.1 or pCMV-blank vectors, as well as other plasmids described previously ([35]). Channel mutants were generated by site-directed mutations. Briefly, the parental channel plasmid was amplified using a pair of oppositely directed primers harboring the designed mutation site, with KOD Fx (TOYOBO Co, Ltd). The resulting PCR mix was treated with FastDigest DpnI (Thermo Fisher Scientific) to remove the methylated template. Ten microliters of the digested product was then used to transform 100 μl E. coli DH5α competent cells. Transformants were randomly picked and sequenced to confirm the presence of the intended mutation.\n(§7) CHO-K1 cells were selected for expressing Kv channels due to their lack of endogenous Kv channels, while HEK293 or ND7/23 cells were used for Nav and Cav channel expression. CHO-K1 cells were cultured in a Dulbecco's modified Eagle's medium/Ham's F-12 nutrient mixture (DMEM-F12) medium, and HEK293T and ND7/23 cells in DMEM medium, all supplemented with 10% fetal bovine serum and 1% penicillin-streptomycin (all from Gibco, Thermo Fisher Scientific, Inc) under standard conditions (37 °C, 5% CO2, and saturated humidity). These cell lines were purchased from Stem Cell Bank, Chinese Academy of Sciences. Channel plasmids were cotransfected with pEGFP-N1 (encoding GFP) into the respective cells using lipofectamine 2000, following the manufacturer's instructions (Invitrogen, Thermo Fisher Scientific, Inc.). Nav1.9-GFP plasmid was transfected into ND7/23 using the X-tremeGENE HP DNA Transfection Reagent (Roche). After 4 to 6 h transfection, cells were seeded onto poly-lysine–coated coverslips, and 24 to 36 h later, transfected cells were ready for patch-clamp analysis.\n(§8) Patch clamp experiments were conducted using an electrophysiology platform comprising a MultiClamp 700B amplifier and an Axon Digidata 1550 AD/DA convertor (Axon Instruments). Data acquisition was performed with pClamp 10.5 software (Axon Instruments). All experiments were performed at room temperature.\n(§9) For Kv current recordings, the bath solution contained (in mM) the following: 140 NaCl, 5 KCl, 1 MgCl2, 2 CaCl2, 10 glucose, and 10 Hepes (pH 7.3, adjusted with NaOH), and the pipette solution contained (in mM) the following: 140 KCl, 2.5 MgCl2, 11 EGTA, and 10 Hepes (pH 7.3, adjusted with KOH). Series resistance was maintained below 10 MΩ and compensated to 80%. Concentration–response curves were fitted by the Hill equation to determine the toxin's potency. Whole cell conductance (G) at each depolarizing voltage (V) was determined using the equation: G = I/(V−Vrev), where I is the current amplitude, and Vrev is the reversal potential. The reversal potential for K^+ current was estimated to be −85.6 mV using the Nernst equation. G-V curves were obtained by plotting the normalized conductance as a function of V and fitted by the Boltzmann equation: y = 1/(1+ exp((Va-V)/k)), which Va is the midpoint voltage, V is the test potential, and k is the slope factor. The steady-state fast inactivation of Kv1.3 was measured using a two-pulses protocol. […]"}, "Kv1.3 S359A mutant": {"tested_on": "Kv1.3 S359A mutant", "assay": "Whole-cell patch clamp, Kv1.3 alanine mutant", "type": "cell-based, human", "details": "100 nM MrVIII, +30 mV; n = 4–7", "method": "as §5, §6, §7, §8, §9"}, "Kv1.3 E349A mutant": {"tested_on": "Kv1.3 E349A mutant", "assay": "Whole-cell patch clamp, Kv1.3 alanine mutant", "type": "cell-based, human", "details": "100 nM MrVIII, +30 mV; n = 4–7", "method": "as §5, §6, §7, §8, §9"}, "Kv1.3/Y339A": {"tested_on": "Kv1.3/Y339A", "assay": "Whole-cell patch clamp, Kv1.3 alanine mutant", "type": "cell-based, human", "method": "as §5, §6, §7, §8, §9"}, "[1]": {"details": "100 nM MrVIII on mutant compared with 10 nM on WT Kv1.3, +30 mV, n = 4–7"}}, "note": "Bridge positions count the residues as written; N and C are the ends. Peptide text beside a SMILES is read from it."}
{"smiles": "CC[C@H](C)[C@@H]1NC(=O)[C@H](Cc2ccc(O)cc2)NC(=O)[C@H](CCC(N)=O)NC(=O)[C@@H]2CCCN2C(=O)[C@@H]2CSSC[C@H](NC(=O)[C@H](C)NC(=O)[C@H](CO)NC(=O)[C@H](CCC(=O)O)NC(=O)[C@H](CCC(=O)O)NC(=O)[C@@H](N)[C@@H](C)O)C(=O)NCC(=O)NCC(=O)N[C@@H](Cc3ccccc3)C(=O)N[C@@H](CC(N)=O)C(=O)N[C@@H](C)C(=O)N[C@@H](CCCNC(=N)N)C(=O)N[C@H]3CSSC[C@H](NC1=O)C(=O)N[C@@H](CCCCN)C(=O)NCC(=O)N[C@@H](Cc1c[nH]c4ccccc14)C(=O)N[C@@H](CCCNC(=N)N)C(=O)N[C@@H]([C@@H](C)O)C(=O)N[C@@H](CCCCN)C(=O)N[C@@H](CCCNC(=N)N)C(=O)N[C@H](C(=O)N[C@@H](CC(C)C)C(=O)N[C@@H](CC(N)=O)C(=O)N1CCC[C@H]1C(=O)O)CSSC[C@H](NC(=O)[C@H](CCCCN)NC(=O)[C@H](Cc1c[nH]cn1)NC(=O)[C@H](CC(C)C)NC(=O)[C@@H]1CCCN1C3=O)C(=O)N2", "note": "[MrVIII] (H-TEESACGGFNARCPLHKCCPQYICKGWRTKRCLNP-OH; disulfide 6-19, 13-24, 18-32; N-terminus and C-terminus assumed)", "values": [{"measurement": "inhibition of Kv1.1/Y256A current", "setting": "Kv1.1/Y256A", "result": "−9.5 ± 4.4", "unit": "%"}, {"measurement": "inhibition of Kv1.7/Y253A current", "setting": "Kv1.7/Y253A", "result": "−9.4 ± 13.6", "unit": "%"}, {"measurement": "inhibition of Kv1.5/Y368A current", "setting": "Kv1.5/Y368A", "result": "19.1 ± 6.2", "unit": "%"}, {"measurement": "decrease of inhibitory potency vs WT Kv1.3, L347A", "setting": "Kv1.3/L347A; [1]", "result": "more than 10 fold"}, {"measurement": "IC50", "setting": "Kv1.3/L347A; +30 mV, 500 ms, mean ± SD, n = 4–6, SD, read-out: IC50, Kv1.3/L347A current", "result": "85.7 ± 41.3", "unit": "nM"}, {"measurement": "reduction in inhibitory potency vs WT Kv1.3, S359A", "setting": "Kv1.3 S359A mutant", "result": "more than 5 fold"}, {"measurement": "reduction in inhibitory potency vs WT Kv1.3, E349A", "setting": "Kv1.3 E349A mutant", "result": "more than 5 fold"}, {"measurement": "decrease of inhibitory potency vs WT Kv1.3, Y339A", "setting": "Kv1.3/Y339A; [1]", "result": "more than 10 fold"}, {"measurement": "inhibition of peak current of Kv1.3/Y339A", "setting": "Kv1.3/Y339A; 10 μM MrVIII, +30 mV, mean ± SD, n = 4–6, SD", "result": "24.9 ± 6.0", "unit": "%"}]}
